Several values for one entry are separate records, joined by “and”; a condition that tells them apart may be missing. Equal values may be shown once. Read-outs that look alike come from different tables or passages of the source.
Experiments:
[1] = molecular target: NIM1K (Homo sapiens, UniProt Q8IY84); assay: SelectScreen kinase assay
Protocol: (§1) Selectivity profiling assays were performed by the Invitrogen SelectScreen™ Services. […] The concentration of ATP was selected to be equal to the KM, unless indicated otherwise.

[2] = molecular target: MAPKAPK3 (Homo sapiens, UniProt Q16644); assay: SelectScreen kinase assay
Protocol: as §1

[3] = molecular target: T1, ADRBK2 (GRK3) (Homo sapiens, UniProt P35626); assay: SelectScreen kinase assay
T1 sequence (P35626 1-688): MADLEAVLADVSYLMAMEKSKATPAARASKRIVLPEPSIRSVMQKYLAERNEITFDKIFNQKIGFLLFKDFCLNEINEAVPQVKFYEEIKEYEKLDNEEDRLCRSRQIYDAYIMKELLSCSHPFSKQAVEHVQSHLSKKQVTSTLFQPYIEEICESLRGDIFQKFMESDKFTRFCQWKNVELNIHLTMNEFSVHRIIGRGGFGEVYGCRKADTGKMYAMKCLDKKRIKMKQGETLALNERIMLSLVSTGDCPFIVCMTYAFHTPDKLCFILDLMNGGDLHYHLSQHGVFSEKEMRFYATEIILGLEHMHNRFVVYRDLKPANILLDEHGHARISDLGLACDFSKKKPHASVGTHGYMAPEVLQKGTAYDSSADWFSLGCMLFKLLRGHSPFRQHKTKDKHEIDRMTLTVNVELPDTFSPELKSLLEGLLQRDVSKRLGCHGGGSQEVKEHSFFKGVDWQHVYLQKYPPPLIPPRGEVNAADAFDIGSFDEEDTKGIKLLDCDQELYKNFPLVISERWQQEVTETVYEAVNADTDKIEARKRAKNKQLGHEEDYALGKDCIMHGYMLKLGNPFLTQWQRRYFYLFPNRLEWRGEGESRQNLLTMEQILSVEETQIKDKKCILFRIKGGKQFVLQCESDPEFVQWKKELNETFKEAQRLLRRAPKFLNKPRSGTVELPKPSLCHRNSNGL
Protocol: as §1

[4] = molecular target: ABL2 (Arg) (Homo sapiens, UniProt P42684); assay: SelectScreen kinase assay; conditions: for Inhibition at 1 µM (%): ABL2 (Arg), ZLYTE, ATP Km app
Sequence of ABL2 (Arg) (P42684 whole entry): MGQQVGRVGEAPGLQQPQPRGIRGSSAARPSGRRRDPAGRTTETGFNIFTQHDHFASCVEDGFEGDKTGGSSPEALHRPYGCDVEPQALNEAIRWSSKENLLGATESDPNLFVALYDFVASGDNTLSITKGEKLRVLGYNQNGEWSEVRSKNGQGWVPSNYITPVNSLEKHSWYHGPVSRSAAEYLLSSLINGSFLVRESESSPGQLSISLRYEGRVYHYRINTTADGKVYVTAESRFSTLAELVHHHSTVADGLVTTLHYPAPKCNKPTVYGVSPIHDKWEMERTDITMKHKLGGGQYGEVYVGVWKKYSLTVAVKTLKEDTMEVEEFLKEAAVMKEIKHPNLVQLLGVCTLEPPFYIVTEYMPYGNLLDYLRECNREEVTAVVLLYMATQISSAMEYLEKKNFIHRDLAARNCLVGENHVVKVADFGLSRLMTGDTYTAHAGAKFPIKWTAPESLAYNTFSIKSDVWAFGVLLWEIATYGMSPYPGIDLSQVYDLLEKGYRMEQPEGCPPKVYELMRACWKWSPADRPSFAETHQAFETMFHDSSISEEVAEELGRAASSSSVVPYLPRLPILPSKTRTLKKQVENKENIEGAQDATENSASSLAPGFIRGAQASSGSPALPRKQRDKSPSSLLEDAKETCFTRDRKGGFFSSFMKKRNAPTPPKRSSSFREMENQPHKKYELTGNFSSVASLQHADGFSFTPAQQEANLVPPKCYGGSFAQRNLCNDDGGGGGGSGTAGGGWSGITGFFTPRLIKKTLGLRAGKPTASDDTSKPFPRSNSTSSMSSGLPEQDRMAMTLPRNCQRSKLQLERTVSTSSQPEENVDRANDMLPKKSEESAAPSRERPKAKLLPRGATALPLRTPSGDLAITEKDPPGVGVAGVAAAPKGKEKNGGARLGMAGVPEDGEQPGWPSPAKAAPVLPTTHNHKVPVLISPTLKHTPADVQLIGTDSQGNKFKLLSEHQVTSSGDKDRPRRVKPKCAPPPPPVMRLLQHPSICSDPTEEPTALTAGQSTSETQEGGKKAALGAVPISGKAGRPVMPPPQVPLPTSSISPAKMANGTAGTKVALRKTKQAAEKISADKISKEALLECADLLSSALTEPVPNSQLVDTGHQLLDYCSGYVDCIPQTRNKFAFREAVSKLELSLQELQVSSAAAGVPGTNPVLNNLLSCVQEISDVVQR
Protocol: as §1

[5] = molecular target: DAPK3 (ZIPK) (Homo sapiens, UniProt O43293); assay: SelectScreen kinase assay; conditions: for Inhibition at 1 µM (%): DAPK3 (ZIPK), ZLYTE, ATP Km app
Protocol: as §1

[6] = molecular target: ~40 kDa protein (Homo sapiens, UniProt P28482); assay: Gel-based target engagement in HL-60 neutrophils; conditions: HL-60, read-out: Inhibition of off-target labeling
Protocol: Data represent means ± SEM.
The term in situ is used to designate experiments in which live cell cultures are treated with inhibitor, whereas the term in vitro refers to experiments in which the inhibitor is incubated with cell lysates. Compounds were diluted in growth medium from a 1000x concentrated stock solution in DMSO. […] After 48 h, cells were treated with compound for 1 h. Cells were collected by suspension in PBS and centrifuged (1000g, 5 min, rt). Pellets were flash-frozen in liquid nitrogen and stored at −80 °C until use. For in situ treatment post-differentiation, HL-60 cells were differentiated as described above and incubated with compound for 1 h unless specified otherwise. Cells were collected by suspension for non-adherent cells and trypsinization for adherent cells. After collection, cells were centrifuged (200g, 5 min, rt) and washed in equal volume of PBS (1000g, 5 min, rt). Cell pellets were flash-frozen in liquid nitrogen and stored at −80 °C until use.

[7] = molecular target: SLK (Homo sapiens, UniProt Q9H2G2); assay: SelectScreen kinase assay
Sequence of SLK (Q9H2G2 whole entry): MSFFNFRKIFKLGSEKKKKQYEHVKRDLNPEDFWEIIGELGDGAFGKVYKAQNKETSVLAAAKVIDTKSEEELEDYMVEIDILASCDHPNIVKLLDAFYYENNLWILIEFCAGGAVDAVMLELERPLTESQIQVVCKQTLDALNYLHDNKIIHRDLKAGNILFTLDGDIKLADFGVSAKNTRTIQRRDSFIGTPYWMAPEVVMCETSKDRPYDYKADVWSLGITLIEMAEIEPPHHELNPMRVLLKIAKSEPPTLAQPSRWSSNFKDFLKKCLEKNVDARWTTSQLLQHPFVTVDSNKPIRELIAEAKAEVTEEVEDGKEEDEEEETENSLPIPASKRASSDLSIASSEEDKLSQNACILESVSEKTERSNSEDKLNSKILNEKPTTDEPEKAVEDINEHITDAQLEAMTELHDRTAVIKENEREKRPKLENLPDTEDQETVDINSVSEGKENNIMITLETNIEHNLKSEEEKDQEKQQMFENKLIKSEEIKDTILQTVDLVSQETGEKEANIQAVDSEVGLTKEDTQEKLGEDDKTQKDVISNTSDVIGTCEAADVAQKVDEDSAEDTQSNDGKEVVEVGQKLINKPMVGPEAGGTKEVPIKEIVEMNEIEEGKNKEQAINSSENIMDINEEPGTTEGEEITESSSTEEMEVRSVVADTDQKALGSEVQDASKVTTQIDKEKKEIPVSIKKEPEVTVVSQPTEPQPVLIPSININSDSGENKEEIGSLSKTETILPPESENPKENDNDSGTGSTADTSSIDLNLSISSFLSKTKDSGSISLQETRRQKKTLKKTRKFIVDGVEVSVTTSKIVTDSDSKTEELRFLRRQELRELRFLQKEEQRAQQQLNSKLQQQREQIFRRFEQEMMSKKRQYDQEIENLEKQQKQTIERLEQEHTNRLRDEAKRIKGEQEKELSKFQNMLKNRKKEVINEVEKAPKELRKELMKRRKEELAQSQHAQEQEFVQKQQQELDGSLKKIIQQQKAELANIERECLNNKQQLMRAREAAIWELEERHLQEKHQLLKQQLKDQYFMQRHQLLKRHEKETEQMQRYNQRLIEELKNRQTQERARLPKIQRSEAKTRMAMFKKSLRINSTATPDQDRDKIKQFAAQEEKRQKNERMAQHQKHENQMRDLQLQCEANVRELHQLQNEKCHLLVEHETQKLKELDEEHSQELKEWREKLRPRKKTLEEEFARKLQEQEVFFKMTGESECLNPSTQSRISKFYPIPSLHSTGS
Protocol: as §1

[8] = molecular target: LRRK2 FL (Homo sapiens, UniProt Q5S007); assay: SelectScreen kinase assay
Sequence of LRRK2 FL (Q5S007 whole entry): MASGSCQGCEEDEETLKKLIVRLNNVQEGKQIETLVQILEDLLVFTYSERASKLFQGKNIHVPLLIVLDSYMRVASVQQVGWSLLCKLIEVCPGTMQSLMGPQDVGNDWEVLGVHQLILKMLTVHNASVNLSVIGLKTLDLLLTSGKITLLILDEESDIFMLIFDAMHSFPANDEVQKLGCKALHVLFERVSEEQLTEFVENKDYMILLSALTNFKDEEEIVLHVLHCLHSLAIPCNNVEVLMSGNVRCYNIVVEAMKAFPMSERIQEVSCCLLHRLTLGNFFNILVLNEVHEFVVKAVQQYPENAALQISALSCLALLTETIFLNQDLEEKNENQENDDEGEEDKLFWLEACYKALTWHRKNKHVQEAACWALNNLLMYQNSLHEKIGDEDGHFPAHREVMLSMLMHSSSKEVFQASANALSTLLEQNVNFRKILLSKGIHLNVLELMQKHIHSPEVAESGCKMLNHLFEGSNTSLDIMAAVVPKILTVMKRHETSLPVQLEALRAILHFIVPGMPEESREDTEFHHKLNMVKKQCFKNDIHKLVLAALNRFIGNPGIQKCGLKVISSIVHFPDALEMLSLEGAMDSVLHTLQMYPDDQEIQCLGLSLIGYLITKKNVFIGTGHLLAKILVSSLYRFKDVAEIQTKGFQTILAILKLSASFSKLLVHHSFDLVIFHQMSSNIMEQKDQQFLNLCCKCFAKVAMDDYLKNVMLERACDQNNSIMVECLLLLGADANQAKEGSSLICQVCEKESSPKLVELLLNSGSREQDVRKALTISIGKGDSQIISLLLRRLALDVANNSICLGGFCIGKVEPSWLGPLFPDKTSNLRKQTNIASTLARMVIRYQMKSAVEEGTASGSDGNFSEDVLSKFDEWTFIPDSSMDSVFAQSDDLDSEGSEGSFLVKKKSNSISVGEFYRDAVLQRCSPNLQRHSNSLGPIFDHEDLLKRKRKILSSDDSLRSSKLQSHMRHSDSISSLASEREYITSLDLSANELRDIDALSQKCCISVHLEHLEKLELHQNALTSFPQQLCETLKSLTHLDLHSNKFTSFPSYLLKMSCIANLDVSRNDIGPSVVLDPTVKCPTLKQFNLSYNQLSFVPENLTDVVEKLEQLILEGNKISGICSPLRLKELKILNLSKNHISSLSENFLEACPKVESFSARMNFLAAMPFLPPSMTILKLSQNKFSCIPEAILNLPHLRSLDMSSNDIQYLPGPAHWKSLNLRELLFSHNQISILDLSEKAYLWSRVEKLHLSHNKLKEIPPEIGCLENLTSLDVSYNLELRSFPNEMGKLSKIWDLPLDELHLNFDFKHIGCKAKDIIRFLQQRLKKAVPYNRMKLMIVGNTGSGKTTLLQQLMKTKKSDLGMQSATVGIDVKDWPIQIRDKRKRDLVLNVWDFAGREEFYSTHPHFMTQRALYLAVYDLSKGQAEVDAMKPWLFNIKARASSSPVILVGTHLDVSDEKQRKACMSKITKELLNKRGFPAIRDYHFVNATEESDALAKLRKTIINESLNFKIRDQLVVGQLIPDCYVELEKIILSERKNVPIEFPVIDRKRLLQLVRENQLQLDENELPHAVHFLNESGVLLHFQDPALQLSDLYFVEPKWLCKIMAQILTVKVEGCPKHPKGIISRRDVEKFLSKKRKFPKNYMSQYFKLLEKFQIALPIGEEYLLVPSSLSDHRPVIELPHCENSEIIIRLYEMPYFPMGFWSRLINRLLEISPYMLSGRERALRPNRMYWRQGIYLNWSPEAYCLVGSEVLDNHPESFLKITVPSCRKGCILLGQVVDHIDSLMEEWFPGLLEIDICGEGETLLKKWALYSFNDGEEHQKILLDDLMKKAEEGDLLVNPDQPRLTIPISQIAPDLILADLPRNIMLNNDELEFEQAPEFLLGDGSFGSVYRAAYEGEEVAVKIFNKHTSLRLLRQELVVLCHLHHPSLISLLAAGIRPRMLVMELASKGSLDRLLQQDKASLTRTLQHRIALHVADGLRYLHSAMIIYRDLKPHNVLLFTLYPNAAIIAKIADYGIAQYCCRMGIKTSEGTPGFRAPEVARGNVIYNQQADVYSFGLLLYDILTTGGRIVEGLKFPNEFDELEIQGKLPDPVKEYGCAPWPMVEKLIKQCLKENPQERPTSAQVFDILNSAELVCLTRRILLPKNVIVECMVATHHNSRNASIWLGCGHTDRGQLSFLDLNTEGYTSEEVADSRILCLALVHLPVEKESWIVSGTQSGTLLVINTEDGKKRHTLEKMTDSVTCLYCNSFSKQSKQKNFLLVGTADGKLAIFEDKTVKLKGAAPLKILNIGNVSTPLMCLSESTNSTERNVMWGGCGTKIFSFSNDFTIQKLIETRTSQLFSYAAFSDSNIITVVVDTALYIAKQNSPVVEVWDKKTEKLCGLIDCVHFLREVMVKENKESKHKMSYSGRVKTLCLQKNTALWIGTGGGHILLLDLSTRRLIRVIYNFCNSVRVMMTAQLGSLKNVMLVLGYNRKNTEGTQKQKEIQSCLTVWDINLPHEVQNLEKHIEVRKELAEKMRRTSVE
Protocol: as §1

[9] = molecular target: TXK (Homo sapiens, UniProt P42681); assay: SelectScreen kinase assay
Protocol: as §1

[10] = molecular target: T2, endogenous FES^S700C in HL-60 cells (Homo sapiens, UniProt P07332, S700C); assay: Gel-based target engagement during neutrophil differentiation; format: cell-based; conditions: 100 nM; Supplementary Figure 12b; individual replicates; listed as WEL028
T2 construct: endogenous in cells; host or cells: HL-60 FES^S700C clone, differentiated to macrophages or neutrophils

[11] = molecular target: DNA-PK (Homo sapiens, UniProt P78527); assay: SelectScreen kinase assay
Protocol: as §1

[12] = molecular target: NTRK3 (TRKC) (Homo sapiens, UniProt Q16288); assay: SelectScreen kinase assay
Protocol: as §1

[13] = molecular target: PIK3CB/PIK3R1 (p110 beta/p85 alpha) (Homo sapiens, UniProt P42338); assay: SelectScreen kinase assay
Protocol: as §1

[14] = molecular target: TESK1 (Homo sapiens, UniProt Q15569); assay: SelectScreen kinase assay
Protocol: as §1

[15] = molecular target: YES1 (Homo sapiens, UniProt P07947); assay: SelectScreen kinase assay
Protocol: as §1

[16] = molecular target: CAMK4 (CaMKIV) (Homo sapiens, UniProt Q16566); assay: SelectScreen kinase assay
Protocol: as §1

[17] = 1 h, 1 μM WEL028, 1 h preincubation
[18] = 1 µM, LanthaScreen Binding, listed as WEL028, 1 µM
[19] = read-out: Inhibition at 1 µM (%), 1 µM, ZLYTE, ATP Km app

C#CCOc1ccc(Nc2ncc(Cl)c(Nc3ccccc3NC(=O)C=C)n2)c(OC)c1 [Compound 6]
inhibition at 1 µM [1, 17]: 2% | inhibition at 1 µM ([1]; read-out: Inhibition at 1 µM (%), NIM1K, 1 µM, ZLYTE, ATP Km app): 3% | inhibition at 1 µM [2, 17]: 9% | Inhibition at 1 µM (%) ([2]; MAPKAPK3, 1 µM, ZLYTE, ATP Km app, listed as WEL028, 1 µM): 10% | inhibition at 1 µM ([2]; read-out: Inhibition at 1 µM (%), MAPKAPK3, 1 µM, ZLYTE, ATP Km app): 9% | inhibition at 1 µM [3, 17]: 7% | Inhibition at 1 µM (%) ([3]; ADRBK2 (GRK3), 1 µM, ZLYTE, ATP Km app, listed as WEL028, 1 µM): 8% | inhibition at 1 µM ([3]; read-out: Inhibition at 1 µM (%), ADRBK2 (GRK3), 1 µM, ZLYTE, ATP Km app): 5% | inhibition at 1 µM [4, 17]: -5% | Inhibition at 1 µM (%) [4]: -2% | Inhibition at 1 µM (%) ([4]; listed as WEL028, 1 µM): -9% | inhibition at 1 µM [5, 17]: 4% | Inhibition at 1 µM (%) [5]: 2% | Inhibition at 1 µM (%) ([5]; listed as WEL028, 1 µM): 5% | inhibition at 0.1 µM [6]: ~10% | Inhibition at 1 µM (%) [7, 18]: 1% and 7% | inhibition at 1 µM [7, 17]: 4% | inhibition at 1 µM [8, 17]: 97% | inhibition at 10 µM ([8]; 1 h, log[inhibitor] (M) -5.00, Adapta, ATP Km app): 100% | inhibition at 3.311 µM ([8]; 1 h, log[inhibitor] (M) -5.48, Adapta, ATP Km app): 100% | inhibition at 1.122 µM ([8]; 1 h, log[inhibitor] (M) -5.95, Adapta, ATP Km app): 100% | inhibition at 0.3715 µM ([8]; 1 h, log[inhibitor] (M) -6.43, Adapta, ATP Km app): 100% | inhibition at 0.123 µM ([8]; 1 h, log[inhibitor] (M) -6.91, Adapta, ATP Km app): 86% | inhibition at 0.04074 µM ([8]; 1 h, log[inhibitor] (M) -7.39, Adapta, ATP Km app): 39% | Inhibition at 1 µM (%) ([8]; LRRK2 FL, 1 µM, Adapta, ATP Km app, listed as WEL028, 1 µM): 96% | inhibition at 1 µM ([8]; read-out: Inhibition at 1 µM (%), LRRK2 FL, 1 µM, Adapta, ATP Km app): 98% | inhibition at 1 µM [9, 17]: 7% | inhibition at 1 µM [9, 19]: 8% | Relative FES labeling (%) [10]: 10.1064% and 13.5252% and 6.003% | inhibition at 1 µM [11, 17]: 6% | Inhibition at 1 µM (%) ([11]; DNA-PK, 1 µM, ZLYTE, ATP Km app, listed as WEL028, 1 µM): 8% | inhibition at 1 µM ([11]; read-out: Inhibition at 1 µM (%), DNA-PK, 1 µM, ZLYTE, ATP Km app): 4% | inhibition at 1 µM [12, 17]: 4% | Inhibition at 1 µM (%) ([12]; NTRK3 (TRKC), 1 µM, ZLYTE, ATP Km app, listed as WEL028, 1 µM): 0% and 8% | inhibition at 1 µM [13, 17]: -8% | Inhibition at 1 µM (%) ([13]; PIK3CB/PIK3R1 (p110 beta/p85 alpha), 1 µM, Adapta, ATP Km app, listed as WEL028, 1 µM): -10% and -7% | Inhibition at 1 µM (%) [14, 18]: 9% | inhibition at 1 µM [14, 17]: 10% | inhibition at 1 µM ([14]; read-out: Inhibition at 1 µM (%), 1 µM, LanthaScreen Binding): 10% | Inhibition at 1 µM (%) ([15]; 1 µM, ZLYTE, ATP Km app, listed as WEL028, 1 µM): 10% | inhibition at 1 µM [15, 17]: 8% | inhibition at 1 µM [15, 19]: 7% | inhibition at 1 µM [16, 17]: -5% | Inhibition at 1 µM (%) ([16]; CAMK4 (CaMKIV), 1 µM, ZLYTE, ATP Km app): -15%
